According to article PMC4433173, “Five hTRPA1 Agonists Found in Indigenous Korean Mint, Agastache rugosa” (PLoS ONE, 2015):
Like-named read-outs stand apart in the source and are kept apart here.

Key:
Assay type in all cases: cell-based
hTRPA1 [1] = biological target: T1, hTRPA1 (Homo sapiens, UniProt O75762); assay: Cytosolic Ca2+ measurement with Fluo-4 AM on a fluorescence plate reader (FlexStation III), ΔRFU dose-response; conditions: for Hill slope of Ca2+ concentration-response curve: n = 7; for agonist type at hTRPA1 (full / partial): judged from maximum ΔRFU versus AITC
T1 construct: expressed in transfected cells
T1 sequence (O75762 whole entry): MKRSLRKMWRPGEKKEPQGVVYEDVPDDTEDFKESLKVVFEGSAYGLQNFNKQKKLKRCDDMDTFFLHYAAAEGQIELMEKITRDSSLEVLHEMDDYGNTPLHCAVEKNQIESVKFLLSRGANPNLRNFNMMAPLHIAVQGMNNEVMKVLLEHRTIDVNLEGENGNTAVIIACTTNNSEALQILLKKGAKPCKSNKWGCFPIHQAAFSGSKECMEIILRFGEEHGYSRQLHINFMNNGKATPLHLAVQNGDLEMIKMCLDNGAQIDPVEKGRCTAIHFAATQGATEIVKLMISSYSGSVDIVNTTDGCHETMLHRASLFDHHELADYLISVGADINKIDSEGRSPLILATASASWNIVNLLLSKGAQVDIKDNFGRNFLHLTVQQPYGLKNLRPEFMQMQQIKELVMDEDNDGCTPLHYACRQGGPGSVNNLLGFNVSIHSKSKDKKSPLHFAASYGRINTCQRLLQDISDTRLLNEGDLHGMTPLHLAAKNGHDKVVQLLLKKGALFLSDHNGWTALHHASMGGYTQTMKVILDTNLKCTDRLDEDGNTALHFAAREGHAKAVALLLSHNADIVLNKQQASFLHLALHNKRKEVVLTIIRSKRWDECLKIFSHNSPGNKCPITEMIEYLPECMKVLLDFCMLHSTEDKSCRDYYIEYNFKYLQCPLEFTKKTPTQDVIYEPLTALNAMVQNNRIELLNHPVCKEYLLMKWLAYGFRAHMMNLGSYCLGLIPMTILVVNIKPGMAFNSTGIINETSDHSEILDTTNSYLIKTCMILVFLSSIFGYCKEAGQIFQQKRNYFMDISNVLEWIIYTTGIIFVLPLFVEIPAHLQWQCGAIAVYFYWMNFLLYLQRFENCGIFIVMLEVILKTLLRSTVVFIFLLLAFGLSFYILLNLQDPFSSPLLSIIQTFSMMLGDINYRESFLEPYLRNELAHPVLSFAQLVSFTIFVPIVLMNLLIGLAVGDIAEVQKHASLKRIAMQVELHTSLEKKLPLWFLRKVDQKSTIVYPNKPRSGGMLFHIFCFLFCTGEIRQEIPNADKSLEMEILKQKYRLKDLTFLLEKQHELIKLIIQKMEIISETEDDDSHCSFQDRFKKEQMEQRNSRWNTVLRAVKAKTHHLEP

hTRPA1 [2] = biological target: T1, hTRPA1; assay: Fura-2 AM ratiometric Ca2+ imaging of hTRPA1-Flp-In 293 stable cells; conditions: for activation of hTRPA1 (cytosolic Ca2+ influx): extract 300 μg/mL, AITC 30 μM, 4-allylanisole 1 mM; for activation of hTRPA1 (cytosolic Ca2+ influx) / block of Ca2+ influxes induced by the five active compounds in hTRPA1 cells: p-anisaldehyde 1 mM, L-carveol 300 μM, trans-p-methoxycinnamaldehyde 100 μM, methyl eugenol 300 μM; for block of Ca2+ influxes induced by the five active compounds in hTRPA1 cells / inhibition of Ca2+ responses induced by AITC and the A.rugosa extract in hTRPA1 cells: antagonist: RR 30 μM, HC-030031 100 μM; for block of Ca2+ influxes induced by the five active compounds in hTRPA1 cells: agonists 4-allylanisole 1 mM; for inhibition of Ca2+ responses induced by AITC and the A.rugosa extract in hTRPA1 cells: hTRPA1-Flp-In 293 stable cells
hTRPV1 = biological target: T2, hTRPV1 (Homo sapiens, UniProt Q8NER1); assay: Fura-2 AM ratiometric Ca2+ imaging of HEK293T cells transiently expressing hTRPV1 (responding cells %); conditions: for activation of hTRPV1 (cytosolic Ca2+ influx, responding cells): extract 300 μg/mL, capsaicin 0.1 μM, ten compounds at 0.1-1 mM; for inhibition of Ca2+ responses induced by the A.rugosa extract in hTRPV1 cells: antagonist: RR 30 μM, CPZ 5 μM, HEK293T cells transiently expressing hTRPV1
T2 construct: host or cells: HEK293T cells, transient transfection with pEAK10-hTRPV1
T2 sequence (Q8NER1 whole entry): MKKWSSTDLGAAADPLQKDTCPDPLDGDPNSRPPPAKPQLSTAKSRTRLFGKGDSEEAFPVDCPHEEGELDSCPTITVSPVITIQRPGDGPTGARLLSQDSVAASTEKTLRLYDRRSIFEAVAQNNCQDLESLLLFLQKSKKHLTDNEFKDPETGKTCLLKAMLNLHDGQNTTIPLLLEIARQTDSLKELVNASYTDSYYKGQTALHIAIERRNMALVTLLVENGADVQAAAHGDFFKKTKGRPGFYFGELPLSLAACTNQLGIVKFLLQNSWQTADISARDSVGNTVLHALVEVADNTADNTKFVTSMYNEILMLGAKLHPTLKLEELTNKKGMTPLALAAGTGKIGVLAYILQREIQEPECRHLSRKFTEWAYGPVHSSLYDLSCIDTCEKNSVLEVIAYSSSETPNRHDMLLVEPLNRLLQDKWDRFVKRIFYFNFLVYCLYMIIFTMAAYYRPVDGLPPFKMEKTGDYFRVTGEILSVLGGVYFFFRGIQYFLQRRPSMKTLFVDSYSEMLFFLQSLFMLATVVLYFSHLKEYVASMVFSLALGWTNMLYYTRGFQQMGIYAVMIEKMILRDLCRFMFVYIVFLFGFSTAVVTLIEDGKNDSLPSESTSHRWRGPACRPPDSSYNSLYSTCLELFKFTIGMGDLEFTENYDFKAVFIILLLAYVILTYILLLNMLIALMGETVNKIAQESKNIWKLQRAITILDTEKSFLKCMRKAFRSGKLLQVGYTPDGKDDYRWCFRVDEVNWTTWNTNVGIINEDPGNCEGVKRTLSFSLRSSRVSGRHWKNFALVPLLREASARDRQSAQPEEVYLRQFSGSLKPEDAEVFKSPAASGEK

hTRPA1 [3] = biological target: T1, hTRPA1; assay: Whole-cell patch clamp recording of hTRPA1 currents; conditions: for induction of hTRPA1 inward currents: holding -70 mV, 30 s application, hTRPA1-Flp-In 293 stable cells and HEK293T cells transiently expressing hTRPA1, AITC 30 μM, 4-allylanisole 3 mM, p-anisaldehyde 6 mM, L-carveol 1.8 mM, methyl eugenol 900 μM, trans-p-methoxycinnamaldehyde 1 mM
Description: For the transient expression of hTRPA1, HEK293T cells (ATCC: CRL-11268) cultured at 37°C in DMEM supplemented with 10% FBS and 1% penicillin/streptomycin (Invitrogen) were transfected using Lipofectamine 2000 (Invitrogen) and 0.1μg of cDNA encoding tetrameric red fluorescence protein (DsRed) was co-transfected as a marker for successfully transfected cells. The hTRPA1expressing plasmid was generously given to us from Kyeongjin Kang (Sungkyunkwan University School of Medicine, Suwon, Korea). The next day, cells were plated onto poly-L-lysine (0.1 mg/ml, Sigma-Aldrich) coated chips, and the fluorescent cells were studied within 2 days after transfection.
Cells were voltage clamped in the whole-cell recording configuration at room temperature (22–25°C). The resistance of electrodes pulled from glass micropipette capillaries (Sutter Instrument Co., Novato, CA, USA) was 2–2.5 MΩ with >60% compensation of series resistance errors. Fast and slow capacitances were compensated before application of the test pulse. Membrane currents were recorded using a HEKA EPC-10 amplifier with pulse software (HEKA Elektronik, Lambrecht, Germany). The pipette solution used for recording hTRPA1 currents contained 140 mM KCl, 5 mM MgCl2, 10 mM HEPES, 0.1 mM 1,2-bis(2-aminophenoxy)ethane-N,N,N',N'-tetraacetic acid (BAPTA), 3 mM Na2ATP, and 0.1 mM Na3GTP (adjusted to pH 7.4 with KOH). The external Ringer’s solution used for recording hTRPA1 currents contained 160 mM NaCl, 5 mM KCl, 1 mM MgCl2, 2 mM EGTA, 10 mM glucose, and 10 mM HEPES (adjusted to pH 7.4with NaOH). hTRPA1 currents were recorded by holding the cell at -70 mV. The following reagents were obtained: BAPTA, Na2ATP, Na3GTP, and EGTA (Sigma-Alrich), HEPES (Calbiochem, San Diego, CA, USA), and other chemicals (Merck, Township, NJ, USA).

[4] = hTRPA1-Flp-In 293 stable cells, Fluo-4 AM
[5] = hTRPA1-Flp-In 293 stable cells, Fluo-4 AM, ΔRFU, Hill fit, seven independent experiments, mean ± SEM, read-out: EC50 of Ca2+ response

Compound | inhibition of Ca2+ responses induced by the A.rugosa extract in hTRPV1 cells (hTRPV1) | block of Ca2+ influxes induced by the five active compounds in hTRPA1 cells (hTRPA1 [2]) | inhibition of Ca2+ responses induced by AITC and the A.rugosa extract in hTRPA1 cells (hTRPA1 [2]) | block of hTRPA1 currents evoked by AITC and five compounds (hTRPA1 [3]; 30 μM RR, pre-incubation 30 s before second application of compounds) | Hill slope of Ca2+ concentration-response curve (hTRPA1 [1]; [4]) | EC50 (hTRPA1 [1]; [5]) | agonist type at hTRPA1 (full / partial) (hTRPA1 [1]) | activation of hTRPA1 (cytosolic Ca2+ influx) (hTRPA1 [2]) | activation of hTRPV1 (cytosolic Ca2+ influx, responding cells) (hTRPV1) | induction of hTRPA1 inward currents (hTRPA1 [3]) | efficacy (maximum ΔRFU) relative to that of AITC (hTRPA1 [1]; [4]) | EC50 (hTRPA1 [1])
C=CCc1ccc(OC)c(OC)c1 [methyl eugenol] | – | – | – | – | 1.4±0.3 | 160 ± 21.9 µM | almost full agonists | activated hTRPA1 | did not activate hTRPV1 | induced inward currents | – | –
COc1ccc(/C=C/C=O)cc1 [trans-p-methoxycinnamaldehyde] | – | – | – | – | 2.2±0.7 | 29.8 ± 14.9 µM | almost full agonists | activated hTRPA1 | did not activate hTRPV1 | induced inward currents | – | –
C=CCc1ccc(OC)cc1 [4-allylanisole] | – | – | – | – | 1.7±0.3 | 1540 ± 316 µM | partial agonists | activated hTRPA1 | did not activate hTRPV1 | induced inward currents | 59.9% | –
COc1ccc(C=O)cc1 [p-anisaldehyde] | – | – | – | – | 2.0±0.5 | 546 ± 73 µM | partial agonists | activated hTRPA1 | did not activate hTRPV1 | induced inward currents | 64.2% | –
N.N.N.N.N.N.N.N.N.N.N.N.N.N.[Cl-].[Cl-].[Cl-].[Cl-].[Cl-].[Cl-].[O-2].[O-2].[Ru+3].[Ru+3].[Ru+4] [RR, ruthenium red, reference compound] | inhibited | mostly blocked | inhibited | completely blocked | – | – | – | – | – | – | – | –
COc1cc(CNC(=O)CCCC/C=C/C(C)C)ccc1O [capsaicin, reference compound] | – | – | – | – | – | – | – | – | significantly stimulated | – | – | –
C=C(C)[C@@H]1CC=C(C)C(O)C1 (stereo partly drawn) [L-carveol] | – | – | – | – | 2.9±0.5 | – | almost full agonists | activated hTRPA1 | did not activate hTRPV1 | induced inward currents | – | 189 ± 26.8 µM
C=CCN=C=S [AITC, allyl isothiocyanate, reference compound] | – | – | – | – | 1.6±0.5 | – | – | successfully activated | – | induced inward currents | – | –

Second part, led by results:

inhibition of Ca2+ responses induced by the A.rugosa extract in hTRPV1 cells (hTRPV1) | block of Ca2+ influxes induced by the five active compounds in hTRPA1 cells (hTRPA1 [2]) | inhibition of Ca2+ responses induced by AITC and the A.rugosa extract in hTRPA1 cells (hTRPA1 [2]) | block of hTRPA1 currents evoked by AITC and five compounds (hTRPA1 [3]; 30 μM RR, pre-incubation 30 s before second application of compounds) | Compound | Hill slope of Ca2+ concentration-response curve (hTRPA1 [1]; [4]) | EC50 (hTRPA1 [1]; [5]) | agonist type at hTRPA1 (full / partial) (hTRPA1 [1]) | activation of hTRPA1 (cytosolic Ca2+ influx) (hTRPA1 [2]) | activation of hTRPV1 (cytosolic Ca2+ influx, responding cells) (hTRPV1) | induction of hTRPA1 inward currents (hTRPA1 [3]) | efficacy (maximum ΔRFU) relative to that of AITC (hTRPA1 [1]; [4]) | EC50 (hTRPA1 [1])
inhibited | – | – | – | Oc1cc2c(cc1O)CN(C(=S)NCCc1ccc(Cl)cc1)CCC2 [CPZ, capsazepine, reference compound] | – | – | – | – | – | – | – | –
– | mostly blocked | inhibited | – | CC(C)c1ccc(NC(=O)Cn2cnc3c2c(=O)n(C)c(=O)n3C)cc1 [HC-030031, reference compound] | – | – | – | – | – | – | – | –
